Data published in US20090036380A1, “Composition And Method For Brain Tumor Therapy” (Yeda Research and Development Co., Ltd., priority 2006, published 2009).

Legend:
[1] = test system: human medulloblastoma cells (MED 283) stably transfected to express TrkA; details: cited from earlier work
PC12 cells [2] = assay: Effect of pathway proteins and inhibitors on Karet-induced cell death in PC12 cells; format: cell-based, rat
PC12 cells [3] = assay: Viability / death of PC12 cells after transfection with Karet constructs (Live/dead kit, FACS, cell counting, Hoechst); format: cell-based, rat
Description: FIG. 5a is a bar-graph of FACS data depicting 50 percent death of PC12 cells overexpressing Karet. Shown is a FACS analysis of PC12 viability 15 hours after transfection with Ha-Karet or control vector using Live/dead kit (Molecular probes), T-test=0.003.
FIG. 5b is a series of fluorescence photomicrographs depicting death of PC12 cells caused by Karet overexpression. Shown is a live/dead kit analysis of PC12 cells overexpressing Ha-Karet (left panels) versus control vector-transfected cells (right panels). Live cell are stained in green, dead cells are stained in red. Upper panels each show red fluorescence only (left picture) and green fluorescence only (right picture) pairs, and lower panels each show combined red and green fluorescence (left picture) and light microscopy images (right picture) pairs.
FIG. 5d is a pair of Hoechst stain histology photomicrographs depicting condensation of chromatin indicating apoptosis in PC12 cells expressing Karet, but not in control cells transfected with vector only.
FIG. 5e is a histogram depicting that Karet expression induces cell death of TrkA expressing cells, which is increased by NGF treatment and is decreased by necdin. PC12 or PC12 necdin stable cell line were electroporated with Karet or GFP control and incubated with or without 50 ng/ml NGF for 12 hours. Cells were counted and result presented as percent of control.
PC12 cells were transfected with Ha Karet, PTB, non PTB and their combinations. Cells were analyzed by FACS 18 hours after transfection using the dead/live kit. N=3; * p<0.05; **p<0.001;
The lower panel is a histogram depicting that Karet-mediated cell death correlates well with expression levels of the Karet protein. PC12 Tet-on cells were electroporated with Ha-Karet cloned under inducible promoter and incubated for 24 hours with different concentrations of doxycycline. Cells transfected with Karet but not treated with doxycycline served as control. Cells were counted and the results were determined as percent of control. The upper panel is a control Western blot depicting increased Karet expression with increased concentrations of doxycycline. Cells transfected with Karet and treated with doxycycline were lysed in NP-40 buffer and subjected to SDS-PAGE analysis. Similar amount of protein was loaded and blotted for Karet expression with Ha antibody. Proteins levels were checked with anti-tubulin antibody.
FIG. 18a—PC12 were transfected with Ha Karet, Karet F217V, PTB F217V or a control vector (pcDNA3) and 18 hours after transfection the effect of Karet or Karet mutants on cell death was determined using the dead/live kit and FACS analysis. Results are presented in percentages as compared to cells transfected with the control vector. N=3 **P<0.001. […] FIG. 18b—Cells were lysed 24 hours after transfection, fractionated on SDS-PAGE and immunoblot for anti Ha (Covance).
FIG. 19 is a histogram depicting FACS analysis of Karet-induced death. PC12 cells were co-transfected with Karet and the PTB, non-PTB or the F217V mutant at different ratios (1:1, 1:2, 1:3) and 18 hours after transfection the cells were analyzed by FACS using the dead/live kit.
Viability of cells was evaluated using the Live/dead viability/cytotoxicity kit (Cat. No. L-3224), Molecular Probes, Inc., Eugene, Oreg., USA, according to manufacturer's instructions.

TrkA [4] = assay: Co-immunoprecipitation of HA-Karet constructs with TrkA; format: binding; details: co-transfected Hek or NNR5 cells, anti-HA IP
Description: (§1) FIG. 3c is a co-immunoprecipitation assay depicting co-immunoprecipitation of HA-Karet with TrkA in COS cells. Karet tagged with the HA epitope was immunoprecipitated with anti-HA antibody and the blot was incubated with anti-TrkA (RTA). In control experiments the HA-Karet was substituted with vector.
(§2) FIG. 3d is a co-immunoprecipitation assay depicting interaction of Karet and TrkA in NNR5 cells transfected with TrkA.
(§3) FIG. 3e is a co-immunoprecipitation assay depicting co-immunoprecipitation of HA-Karet with TricA in co-transfected NNR5 cells immunoprecipitated with anti-HA (Roche) and Western blot with the anti-TrkA antibody C14 (Santa Cruz).
(§4) FIGS. 4a-c are co-immunoprecipitation assay results depicting the influence of NGF treatment on TrkA-Karet interaction. FIG. 4a depicts that TrkA-Karet interaction occurred prior to NGF treatment and was enhanced after ligand stimulation for 10 minutes (10 m) or 2 hours (2 h). HA-Karet was electroporated into cell line PC12, and the cells were treated with 50 ng/ml NGF for the indicated time periods in order to activate p75 and TrkA. Karet tagged with the HA epitope was immunoprecipitated with anti-HA antibody, the precipitated proteins were separated electrophoretically, and gel blots were incubated with anti-TrkA antibody (RTA). FIG. 4b depicts that necdin seems to compete with TrkA for binding to Karet. myc-Karet was electroporated into necdin stable cell line, and the cells were treated with 50 ng/ml NGF for the indicated time periods. Karet tagged with the myc epitope was immunoprecipitated with anti-myc antibody, the precipitated proteins were separated electrophoretically, and gel blots were incubated with anti-TrkA antibody (RTA). […] A blot from the same experiment was stripped and re-incubated with anti-necdin antibody. The arrow indicates the glycosylated form of TrkA (molecular weight of 140 kDa).
(§5) FIG. 7b is an immunoprecipitation assay depicting that the PTB domain-containing Karet(1-228) mutant, but not Karet(228-453) co-immunoprecipitates with TrkA in NNR5 cells. Truncation mutants tagged with the HA epitope were immunoprecipitated with anti-HA antibody, the precipitated proteins were separated electrophoretically, and gel blots were incubated with anti-TrkA (RTA).
(§6) FIGS. 24a-d depict co IP of Ha Karet with TrkA, TrkB, TrkC, p75 from co-transfected Hek cells. Cells were co-transfected with Ha Karet or control vector and TrkA, TrkB, TrkC or p75. Cells were lysed with NP40, the HA-beads (beads conjugated to anti-HA antibody) were blocked with Hek lysate, and elution was done for 30 minutes at 37° C. […]

TrkA [5] = target: T1, TrkA (Rattus norvegicus, UniProt P35739); assay: as above; format: binding; details: PC12 cells transfected with Karet; 50 ng/ml NGF, 10 minutes and 2 hours
T1 construct: expressed in transfected cells
T1 sequence (P35739 33-799): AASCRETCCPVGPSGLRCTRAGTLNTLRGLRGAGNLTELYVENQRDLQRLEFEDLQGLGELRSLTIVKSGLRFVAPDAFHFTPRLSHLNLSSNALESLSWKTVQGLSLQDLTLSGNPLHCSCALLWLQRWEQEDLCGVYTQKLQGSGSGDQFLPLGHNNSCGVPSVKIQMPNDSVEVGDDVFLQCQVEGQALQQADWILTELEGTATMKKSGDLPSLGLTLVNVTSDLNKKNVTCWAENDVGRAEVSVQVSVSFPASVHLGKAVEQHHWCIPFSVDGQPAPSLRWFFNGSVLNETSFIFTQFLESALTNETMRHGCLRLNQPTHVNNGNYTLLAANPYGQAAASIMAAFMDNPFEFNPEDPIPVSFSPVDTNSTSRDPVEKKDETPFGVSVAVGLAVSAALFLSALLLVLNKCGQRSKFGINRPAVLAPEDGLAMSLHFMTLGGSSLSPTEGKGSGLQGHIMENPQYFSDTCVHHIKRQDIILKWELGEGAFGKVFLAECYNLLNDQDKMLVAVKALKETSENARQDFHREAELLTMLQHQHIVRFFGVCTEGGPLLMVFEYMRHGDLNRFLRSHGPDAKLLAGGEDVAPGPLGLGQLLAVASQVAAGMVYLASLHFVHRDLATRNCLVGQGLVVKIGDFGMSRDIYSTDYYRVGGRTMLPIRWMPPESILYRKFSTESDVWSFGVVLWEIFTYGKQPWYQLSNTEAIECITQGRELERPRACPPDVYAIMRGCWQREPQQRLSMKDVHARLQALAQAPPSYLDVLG
Description: as §1, §2, §3, §4, §5, §6

COC(=O)[C@@]1(O)C[C@H]2O[C@]1(C)n1c3ccccc3c3c4c(c5c6ccccc6n2c5c31)C(=O)NC4 [K252a, reference compound]
effect on NGF-induced apoptosis ([1]; TrkA-medulloblastoma cells): inhibited
effect on cell death effect of Karet (PC12 cells [2]; PC12 cells expressing Karet, 12 hours, different concentrations of K252A): diminished the cell death effect of Karet

C[S+]([O-])c1ccc(-c2nc(-c3ccncc3)c(-c3ccc(F)cc3)[nH]2)cc1 (centres unmarked) [SB203580, reference compound]
effect on cell death induction by Karet (PC12 cells [2]; PC12 electroporated with Karet, 10 micromolar SB203580): did not affect cell death induction

Karet(228-453): C-terminal truncation mutant of mouse Karet, amino acid residues 228-453 (SEQ ID NO:8)
effect on Karet-induced death in competition assay (PC12 cells [3]; PC12 co-transfected with Karet at ratios 1:1, 1:2, 1:3, FACS 18 hours after transfection): reduced Karet-induced death
co-immunoprecipitation / interaction with TrkA (TrkA [4]): does not

NGF: nerve growth factor, neurotrophin ligand of TrkA
cell death on NGF treatment ([1]; MED 283 cells expressing TrkA): significant levels of cell death
additional increase of death by NGF treatment (PC12 cells [3]; PC12 cells overexpressing Karet, 50 ng/ml NGF, 12 hours): 30%
effect of NGF on TrkA-Karet interaction (TrkA [5]): enhanced
